Values after ≈ are worked out from the molar mass of the structure shown. Values joined by “and” are separate entries in the source; they are usually repeats but may differ in a detail not shown here. Identical values can stand only once. Like-named read-outs stand apart in the source and are kept apart here.
Columns and labels:
[1] = tested on: Mycobacterium tuberculosis H37Rv; experiment: MIC determination (PrestoBlue); type: cell-based; settings: Mycobacterium tuberculosis, H37RV
[2] = tested on: Enterococcus faecium 33D3; experiment: microbe, parasite or virus in culture
[3] = tested on: E. faecium clinical isolate 58C9 (vancomycin and daptomycin resistant); experiment: microbe, parasite or virus in culture; settings: Enterococcus faecium
E. faecium 3303 = experiment: microbe, parasite or virus in culture; type: cell-based, Enterococcus faecium; settings: for MIC Alone / MIC: compound alone in checkerboard; for Max. fold change in MIC: decrease; for MIC: Enterococcus faecium, 3303, read-out: MIC Alone, E. faecium 3303
Description: In therapeutic applications, synergy between active ingredients occurs when an observed combined therapeutic effect is greater than the sum of therapeutic effects of individual active ingredients, or a new therapeutic effect is produced that the active ingredients could not produce alone. […] In this context, the enhancement of therapeutic effect may take the form of increased efficacy or potency and/or decreased adverse effects. The synergistic effect may be mediated in whole or in part by the pharmacokinetics and/or pharmacodynamics of the active ingredients in a subject, so that the amount and proportion of the ingredients in the formulation may be synergistic in vivo. This in vivo synergy may be effected with a formulation that includes the active ingredients in amounts and proportions that are also synergistic in in vitro assays of efficacy. As used herein, the term “synergistically effective amounts” accordingly refers to amounts that are synergistic in vivo and/or in vitro. A numeric quantification of synergy is often expressed as a fractional inhibitory concentration index (FICI), which represents the sum of the fractional inhibitory concentrations (FICs) of each drug tested, where the FIC is determined for each drug by dividing the minimum inhibitory concentration (MIC, the lowest concentration of the drug which prevents visible growth of the bacterium in a standard in vitro assay-standard colorometric assay based on resazurin) of each drug when used in combination by the MIC of each drug when used alone. In very general terms, a FICI lower or higher than 1 indicates positively correlated activity (at least additive or potentiation) or an absence of positive interactions, respectively. More definitively, synergy of two compounds may be conservatively defined as a FICI of ::::0.5 (see Odds, 2003; with additivity or potentiation corresponding to a FICI of >0.5 to ::::0.75; no interaction (indifference) corresponding to a FICI of >1 to ::::4; and antagonism corresponding to a FICI of >>4). Synergy of three compounds has been defined as a FICI of ::::1.0. (Berenbaum, 1978; Yu et al., 1980). To estimate the optimal concentrations in triple combinations, the optimal concentrations of trans-caryophyllene and cannabinoid were utilized in combination with a series of daptomycin dilutions.
Pre-cultures of bacteria growing in their corresponding liquid media (defined below) were diluted to an 00600 of 0.0025 and 100 μl was added to 100 μl of medium containing serial 2-fold dilutions of cannabinoid (cannabinoid stocks, in methanol or acetonitrile for acidic forms, were diluted in growth medium) in 96-well plates. Plates were then incubated for 20-24 h at 37° C., and growth was recorded as 00600 in a Thermo Scientific™ Varioskan™ Flash Multimode Reader.
Method for Tables 4-7. Interaction of Cannabinoids CBC, CBD and CBG with Terpenes and Daptomycin:
FICI values was determined in a 96 well checkerboard format using the MIC assay for cannabinoids (compound A), terpenes (compound B), and daptomycin (compound C) alone and in combinations. Terpene stocks were prepared in DMSO and diluted in the growth medium. The fractional inhibitory concentration for each compound was calculated as follows: FICA=(MIC of compound A in the presence of compound B)/(MIC of compound A alone). Similarly, the FICs for compounds Band C were calculated. The FICI was calculated as FICA plus FICs plus FICc.

[4] = tested on: Staphylococcus epidermidis ATCC 14990; experiment: MIC determination; type: cell-based; settings: ATCC14990
[5] = tested on: E. faecium clinical isolate 55A6 (vancomycin and daptomycin resistant); settings: for Fold reduction in daptomycin MIC in combination with the cannabinoid: E. faecium isolate 55a6
[6] = tested on: Enterococcus faecium 33D3; settings: for Fold reduction in daptomycin MIC in combination with the cannabinoid: E. faecium isolate 3303; for MIC: clinical enterococcal strain 3303
[7] = tested on: biofilms of E. faecium strain 3303; experiment: Biofilm treatment (crystal violet mass, viable bacteria); type: cell-based, Enterococcus faecium; settings: 48 h biofilms of strain 3303 treated 72 h; FIG. 4
Method: The data in FIG. 4 was generated by growing biofilms of E. faecium strain 3303 for 48 h without cannabinoids, then treating the biofilms with cannabinoids for 72 h. The mass of the biofilm was quantitated by crystal violet staining. Viable bacteria in the biofilm were quantitated by scrapping biofilm then counting the viable bacteria. As illustrated, CBO and CBG illustrate a surprising degree of antibiotic activity against the strain 3303 of E. faecium. Of note, CBC was bactericidal against planktonic Enterococci.

enterococci = settings: MIC 4 mg/L; 6 mg/kg doses; enterococcal bacteremia; cited from earlier work
[8] = 33D3, Enterococcus faecium 33D3 (Table 1)
[9] = 33D3, clinical enterococcal strain 3303
[10] = E. faecium 3303, pairwise, with daptomycin
[11] = E. faecium 3303, pairwise, with trans-caryophyllene
[12] = E. faecium 3303, triple, with daptomycin and trans-caryophyllene
[13] = E. faecium 3303, pairwise, with CBC
[14] = E. faecium 3303, pairwise, with CBD
[15] = E. faecium 3303, pairwise, with CBG
[16] = E. faecium 3303, text b61, Table 5
[17] = E. faecium 3303, triple, with CBC and trans-caryophyllene
[18] = E. faecium 3303, triple, with CBG and trans-caryophyllene

SMILES	MIC ([1]; Media 7H9, read-out: MIC)	MIC ([1]; Media PB, read-out: MIC)	MIC [2, 8]	MIC [2, 9]	MIC [3]	MIC Alone (E. faecium 3303; E. faecium 3303)	MIC In combination (E. faecium 3303; [10])	Max. fold change in MIC (E. faecium 3303; [10])	MIC In combination (E. faecium 3303; [11])	Max. fold change in MIC (E. faecium 3303; [11])	MIC In combination (E. faecium 3303; [12])	Max. fold change in MIC (E. faecium 3303; [12])	MIC (E. faecium 3303)	MIC ([4]; Staphylococcus epidermidis)	Fold reduction in daptomycin MIC in combination with the cannabinoid [5]	Fold reduction in daptomycin MIC in combination with the cannabinoid [6]	inhibition of E. faecium biofilm growth [7]	also measured
CCCCCc1cc(O)c2c(c1)OC(C)(CCC=C(C)C)C=C2 (stereo not drawn) [CBC, cannabichromene]	8 µg/mL (≈ 25.4 µM)	4 µg/mL (≈ 12.7 µM)	1 to 2 µg/mL (≈ 3.18 to 6.36 µM)	1 µg/mL (≈ 3.18 µM)	1 µg/mL (≈ 3.18 µM)	2 mg/L	0.5 mg/L	4 l fold	0.125 mg/L	16 l fold	0.25 mg/L	8 l fold	1 µg/mL	4 µg/mL (≈ 12.7 µM)	512 Fold	128 Fold	–	–
C=C(C)[C@@H]1CCC(C)=C[C@H]1c1c(O)cc(CCCCC)cc1O [CBD, cannabidiol, reference compound]	16 µg/mL (≈ 50.9 µM)	4 µg/mL (≈ 12.7 µM)	1 to 2 µg/mL (≈ 3.18 to 6.36 µM)	1 µg/mL (≈ 3.18 µM)	1 µg/mL (≈ 3.18 µM)	2 mg/L	1 mg/L	4″′ fold	0.125 mg/L	16″′ fold	0.5 mg/L	4 fold	4 µg/mL	–	–	–	surprisingly effective at inhibiting E. faecium biofilm growth	MIC ([4]; Staphylococcus epidermidis ATCC 14990, read-out: MIC): 2 µg/mL (≈ 6.36 µM)
CCCCCc1cc(O)c(C/C=C(\C)CCC=C(C)C)c(O)c1 [CBG, cannabigerol]	2 µg/mL (≈ 6.32 µM)	2 µg/mL (≈ 6.32 µM)	1 to 2 µg/mL (≈ 3.16 to 6.32 µM)	1 µg/mL (≈ 3.16 µM)	1 µg/mL (≈ 3.16 µM)	–	0.125 mg/L	32″′ fold	0.125 mg/L	16″′ fold	0.25 mg/L	4 fold	–	1 to 2 µg/mL (≈ 3.16 to 6.32 µM)	4 Fold	32 Fold	surprisingly effective at inhibiting E. faecium biofilm growth	–
CCCCCCCCCC(=O)N[C@@H](Cc1c[nH]c2ccccc12)C(=O)N[C@H](CC(N)=O)C(=O)N[C@@H](CC(=O)O)C(=O)N[C@@H]1C(=O)NCC(=O)N[C@@H](CCCN)C(=O)N[C@@H](CC(=O)O)C(=O)N[C@H](C)C(=O)N[C@@H](CC(=O)O)C(=O)NCC(=O)N[C@H](CO)C(=O)N[C@@H]([C@H](C)CC(=O)O)C(=O)N[C@@H](CC(=O)c2ccccc2N)C(=O)O[C@@H]1C [Daptomycin, daptomycin, reference compound]	–	–	–	–	–	8 mg/L	–	–	0.5 mg/L	8 l fold and 8″′ fold	–	–	–	–	–	–	–	MIC Alone (E. faecium 3303; E. faecium 3303, listed as daptomycin): 4 mg/L; MIC In combination (E. faecium 3303; [13]): 0.03125 mg/L; Max. fold change in MIC (E. faecium 3303; [13]): 128 l fold; Max. fold change in MIC (E. faecium 3303; E. faecium 3303, pairwise, with CBC, listed as daptomycin): 128 fold; MIC In combination (E. faecium 3303; [14]): 0.25 mg/L; Max. fold change in MIC (E. faecium 3303; [14]): 16″′ fold; MIC In combination (E. faecium 3303; [15]): 0.25 mg/L; Max. fold change in MIC (E. faecium 3303; [15]): 32″′ fold; MIC of daptomycin (alone) (E. faecium 3303; [16]): 8 µg/mL; MIC of daptomycin in the presence of CBO and trans caryophyllene (E. faecium 3303; [16]): 0.03 µg/mL; MIC In combination (E. faecium 3303; [17]): 4 mg/L; Max. fold change in MIC (E. faecium 3303; [17]): 2 l fold; MIC In combination (E. faecium 3303; E. faecium 3303, triple, with CBD and trans-caryophyllene): 0.03 mg/L; Max. fold change in MIC (E. faecium 3303; E. faecium 3303, triple, with CBD and trans-caryophyllene, listed as daptomycin): 256 fold; MIC In combination (E. faecium 3303; [18]): 2 mg/L; Max. fold change in MIC (E. faecium 3303; [18]): 4 l fold; probability of attaining target pharmacokinetic parameters (enterococci): 1.5-5.5%; MIC ([5]; clinical enterococcal strain 55A6, vancomycin and daptomycin resistant): 8 mg/L (≈ 4.94 µM); MIC [6]: 2 mg/L (≈ 1.23 µM); MIC ([6]; listed as daptomycin): 1 mg/L (≈ 0.617 µM)

Reference: patent US11744819B2, “Antibiotic cannabinoid-terpene formulations” (priority 2019, dated 2023)
